Assay results from patent US12324848B2, “Core shell silica particles and uses thereof as an anti-bacterial agent” (Colgate-Palmolive Company, priority 2013, dated 2025).

Tested on: Chemostat Inoculum (bacteria cocktail with A. viscosus, S. oralis, V. parvula, L. casei, and F. nucleatum)
Assay: Resazurin anti-bacterial test (bacterial viability microassay)
Type: cell-based
Settings: 1 hr incubation with test solution 1:1 in 1/4 strength trypticase soy broth, average of runs over 4-5 days, concentration as in toothpaste formula
Experimental: The core shell silica (CSS) particles of the invention were testing for anti-bacterial activity using the resazurin anti-bacterial test assay wherein the reduction of resazurin is a measure of reduction of bacterial growth.
All solutions are measured for the bacterial viability using resazurin microassay with Chemostat Inoculum (bacteria cocktail with A. viscosus, S. oralis, V. parvula, L. casei, and F. nucleatum) used in oral care product evaluation. Resazurin (7-Hydroxy-3H-phenoxazin-3-one 10-oxide) is a blue dye used as oxidation—reduction reaction, quantifies bacterial viability from color perception with respiring reaction effect.
Each experiment is conducted with live and dead bacterial cocktail with A. viscosus, S. oralis, V. parvula, L. casei, and F. nucleatum using TSB broth (trypticase soy broth) and ethanol respectively and they were added at proper ratio to generate standard curve from 100% live bacterial cocktail to 100% dead bacterial cocktail collecting at a total of 12 points.
The assay is performed using bacteria pellet from 1 ml Chemostat Inoculum and exposed with 1/4 strength trypticase soy broth: test solution at 1:1 ratio in Eppendorf tube. After 1 hr incubation further bacteria growth was deactivated adding 1 ml D/E Broth with proper mixing and collected pellet was rinsed with 1 ml TSB broth to remove D/E broth completely (D/E=Dey-Engley). […]

Compound: [Cl-].[Cl-].[Zn+2] [Positive control (1% ZnCl2 + water), zinc chloride]
- % of viable bacteria: 4.88%
